In patent US8293774B2, “Optically active (R)-aryloxypropionic acid amides and herbicidal composition comprising same” (Kyung Nong Corporation, priority 2007, dated 2012):

Assays:
Assay in all cases: Weed control test, foliage treatment (Test Example 1, Table 7)
[1] = tested on: GLXMA (Glycine max(L.) MERR, soy bean); conditions: in vivo
Protocol: (§1) Seeds of rice, wheat, soy bean, barley, corn, common sorgum, barnyard grass, large crabgrass, creek grass, green foxtail and fall panicum were placed in sandy loam in 600 cm^2 pots and covered with soil. After keeping the pots in a greenhouse at 20 to 30° C. allowing growth of the plants to the 3-leaf stage of the barnyard grass, 2,000 l/ha of an emulsion obtained by diluting with water a mixture of 1 part by weight of a test compound, 5 parts by weight of acetone and 1 part by weight of an emulsifying agent (Tween 80, Junsei) was applied to the surface of the foliage of the plants. The plant damage at 10 days and 20 days after the foliage treatment was visually evaluated from the level of 1 to 100% by comparison with the untreated control: […]

[2] = tested on: HORVU (Hordeum vulgare L., barley); conditions: in vivo
Protocol: as §1

[3] = tested on: ORYSA (Oryza sativa cv. Dongjin, rice); conditions: in vivo
Protocol: as §1

[4] = tested on: TRZAW (Tritium aestivum L., wheat); conditions: in vivo
Protocol: as §1

[5] = tested on: ARTHIS (Arthraxon hispidus (Thunb.) Makino, creek grass); type: in vivo; conditions: Arthraxon hispidus, foliar, read-out: Plant damage (herbicidal activity), visually evaluated, ARTHIS; for pest or weed control at 25 g/ha: 0.025 kg/ha; for pest or weed control at 100 g/ha: 0.1 kg/ha; for pest or weed control at 200 g/ha: 0.2 kg/ha
Protocol: as §1

[6] = tested on: DIGSA (Digitaria Sanguinalis (L.) SCOP, large crabgrass); type: in vivo; conditions: Digitaria sanguinalis, foliar, read-out: Plant damage (herbicidal activity), visually evaluated, DIGSA; for pest or weed control at 25 g/ha: 0.025 kg/ha; for pest or weed control at 100 g/ha: 0.1 kg/ha; for pest or weed control at 200 g/ha: 0.2 kg/ha
Protocol: as §1

[7] = tested on: ECHOG (Echinoch crus-galli Beauv. var. caudata Kitagawa, barnyard grass); type: in vivo; conditions: Echinochloa crus-galli, foliar, 3-leaf stage, read-out: Plant damage (herbicidal activity), visually evaluated, ECHOG; for pest or weed control at 25 g/ha: 0.025 kg/ha; for pest or weed control at 100 g/ha: 0.1 kg/ha; for pest or weed control at 200 g/ha: 0.2 kg/ha
Protocol: as §1

[8] = tested on: PANDI (Panium dichotomiflorum Michx, fall panicum); type: in vivo; conditions: Panicum dichotomiflorum, foliar, read-out: Plant damage (herbicidal activity), visually evaluated, PANDI; for pest or weed control at 25 g/ha: 0.025 kg/ha; for pest or weed control at 100 g/ha: 0.1 kg/ha; for pest or weed control at 200 g/ha: 0.2 kg/ha
Protocol: as §1

[9] = tested on: SETVIR (Setaria viridis (L.) Beauv, green foxtail); type: in vivo; conditions: Setaria viridis, foliar, read-out: Plant damage (herbicidal activity), visually evaluated, SETVIR; for pest or weed control at 25 g/ha: 0.025 kg/ha; for pest or weed control at 100 g/ha: 0.1 kg/ha; for pest or weed control at 200 g/ha: 0.2 kg/ha
Protocol: as §1

[10] = tested on: SORBI (Andropogon sorghum, common sorgum); type: in vivo; conditions: Sorghum bicolor, foliar, read-out: Plant damage (herbicidal activity), visually evaluated, SORBI; for pest or weed control at 25 g/ha: 0.025 kg/ha; for pest or weed control at 100 g/ha: 0.1 kg/ha; for pest or weed control at 200 g/ha: 0.2 kg/ha
Protocol: as §1

[11] = tested on: ZEAMX (Zea mays L., corn); type: in vivo; conditions: Zea mays, foliar, read-out: Plant damage (herbicidal activity), visually evaluated, ZEAMX; for plant injury at 25 g/ha: 0.025 kg/ha; for plant injury at 100 g/ha: 0.1 kg/ha; for plant injury at 200 g/ha: 0.2 kg/ha
Protocol: as §1

Row | SMILES | Plant damage (herbicidal activity), visually evaluated, GLXMA [1] | Plant damage (herbicidal activity), visually evaluated, HORVU [2] | Plant damage (herbicidal activity), visually evaluated, ORYSA [3] | Plant damage (herbicidal activity), visually evaluated, TRZAW [4] | pest or weed control at 25 g/ha [5] | pest or weed control at 100 g/ha [5] | pest or weed control at 200 g/ha [5] | pest or weed control at 25 g/ha [6] | pest or weed control at 100 g/ha [6] | pest or weed control at 200 g/ha [6] | pest or weed control at 25 g/ha [7] | pest or weed control at 100 g/ha [7] | pest or weed control at 200 g/ha [7] | pest or weed control at 25 g/ha [8] | pest or weed control at 100 g/ha [8] | pest or weed control at 200 g/ha [8] | pest or weed control at 25 g/ha [9] | pest or weed control at 100 g/ha [9] | pest or weed control at 200 g/ha [9] | pest or weed control at 25 g/ha [10] | also measured
1 | C[C@@H](Oc1ccc(Oc2ccc(C#N)cc2F)cc1)C(=O)Nc1cnccn1 [Example 35, (R)-2-[4-(4-cyano-2-fluorophenoxy)phenoxy]propionic acid-N-(2-pyrazinyl)amide] | 0% | 0% | 0% | 0% | 0% | 10% | 30% | 10% | 40% | 60% | 0% | 10% | 30% | 0% | 0% | 30% | 0% | 30% | 50% | 20% | pest or weed control at 100 g/ha [10]: 65%; pest or weed control at 200 g/ha [10]: 80%; plant injury at 25 g/ha [11]: 0%; plant injury at 100 g/ha [11]: 20%; plant injury at 200 g/ha [11]: 30%
2 | C[C@@H](Oc1ccc(OC(F)=Cc2ccccc2)cc1)C(=O)N(C)c1ccccc1F [Example 37, (R)-2-[4-(1-fluoro-2-phenylvinyloxy)phenoxy]propionic acid-N-(2-fluorophenyl)-N-methyl amide] | 0% | 0% | 0% | 0% | 0% | 0% | 10% | 0% | 20% | 90% | 20% | 70% | 90% | 0% | 0% | 10% | 0% | 0% | 20% | 0% | pest or weed control at 100 g/ha [10]: 20%; pest or weed control at 200 g/ha [10]: 20%; plant injury at 25 g/ha [11]: 0%; plant injury at 100 g/ha [11]: 0%; plant injury at 200 g/ha [11]: 30%
